Data as given in ChEMBL document CHEMBL1156292, “Zwittermicin A: synthesis of analogs and structure-activity studies” (2010).
In brackets after ≈: the same amount, converted by molar mass.

Key:
Format in all cases: functional
Candida albicans [1] = assay: Antifungal activity against Candida albicans ATCC 14503 by disk diffusion assay
Pichia kudriavzevii = assay: Antifungal activity against Candida krusei by disk diffusion assay
Candida albicans [2] = assay: Antifungal activity against Candida albicans UCDFR1 by disk diffusion assay
Candida albicans [3] = assay: Antifungal activity against Candida albicans 96-489 by disk diffusion assay
Nakaseomyces glabratus = assay: Antifungal activity against Candida glabrata by disk diffusion assay
[4] = test system: Pectobacterium carotovorum; assay: Antibacterial activity against Erwinia carotovora by disk diffusion assay
Phytophthora infestans = assay: Antifungal activity against Phytophthora infestans by disk diffusion assay
Erwinia amylovora = assay: Antibacterial activity against Erwinia amylovora by disk diffusion assay

Structure (SMILES) | MIC (Candida albicans [1]) [µg/mL] | MIC (Pichia kudriavzevii) [µg/mL] | MIC (Candida albicans [2]) [µg/mL] | MIC (Candida albicans [3]) [µg/mL] | MIC (Nakaseomyces glabratus) [µg/mL] | MIC [4] [µg/mL] | MIC (Phytophthora infestans) [µg/mL] | MIC (Erwinia amylovora) [µg/mL]
N[C@H](CO)[C@H](O)C[C@H](O)[C@@H](N)CO | > 128 | > 128 | > 128 | > 128 | > 128 | – | – | –
NC(=O)NC[C@@H](NC(=O)[C@@H](O)[C@H](O)[C@H](N)[C@H](O)C[C@@H](O)[C@@H](N)CO)C(N)=O [ENT-ZWITTERMICIN A] | > 128 | > 128 | > 128 | > 128 | > 128 | > 128 | > 32 | > 128
N[C@@H](CO)[C@@H](O)C[C@H](O)[C@@H](N)CO | > 128 | > 128 | > 128 | > 128 | > 128 | – | – | –
N[C@H](CO)[C@@H](O)C[C@H](O)[C@H](N)CO | > 128 | > 128 | > 128 | > 128 | > 128 | > 128 | > 32 | > 128
NC(=O)NC[C@@H](NC(=O)[C@@H](O)[C@H](O)[C@H](N)CO)C(N)=O | > 128 | > 128 | > 128 | > 128 | > 128 | > 128 | > 32 | > 128
N[C@H](CO)[C@H](O)C[C@H](O)[C@H](N)CO | > 128 | > 128 | > 128 | > 128 | > 128 | – | – | –
N[C@H](CO)[C@@H](O)C[C@H](O)[C@@H](N)CO | > 128 | > 128 | > 128 | > 128 | > 128 | – | – | –
N[C@@H](CO)[C@H](O)C[C@H](O)[C@@H](N)CO | > 128 | > 128 | > 128 | > 128 | > 128 | – | – | –
NC(=O)NC[C@H](NC(=O)[C@@H](O)[C@H](O)[C@H](N)CO)C(N)=O | > 128 | > 128 | > 128 | > 128 | > 128 | > 128 | > 32 | > 128
NC(=O)NC[C@H](NC(=O)[C@@H](O)[C@H](O)[C@H](N)[C@H](O)C[C@@H](O)[C@@H](N)CO)C(N)=O | > 128 | > 128 | > 128 | > 128 | > 128 | > 128 | > 32 | > 128
NC(=O)NC[C@@H](NC(=O)[C@H](O)[C@@H](O)[C@@H](N)[C@@H](O)C[C@@H](O)[C@@H](N)CO)C(N)=O | > 128 | > 128 | > 128 | > 128 | > 128 | > 128 | > 32 | > 128
N[C@@H](CO)[C@H](O)C[C@@H](O)[C@@H](N)CO | > 128 | > 128 | > 128 | > 128 | > 128 | – | – | –
NC(=O)NC[C@H](NC(=O)[C@H](O)[C@@H](O)[C@@H](N)[C@@H](O)C[C@H](O)[C@H](N)CO)C(N)=O | > 128 | > 128 | > 128 | 55.7 (≈ 141 µM) | 59.5 (≈ 150 µM) | 22.2 (≈ 56 µM) | > 32 | 18.8 (≈ 47.4 µM)
NC(=O)NC[C@H](NC(=O)[C@H](O)[C@@H](O)[C@@H](N)[C@@H](O)C[C@@H](O)[C@@H](N)CO)C(N)=O | > 128 | > 128 | > 128 | > 128 | > 128 | > 128 | > 32 | > 128
